The values below come from US20250295617A1, “METABOLITES FOR TREATMENT AND PREVENTION OF AUTOIMMUNE DISEASE” (MONASH UNIVERSITY, priority 2016, published 2025).

For one assay, the system named is female NOD mice. To be noted: acetate in drinking water from 5 weeks of age. The protocol: To standardise microbiota, prior to beginning diets mice from multiple litters were mixed and randomly allocated to groups. The purified diets used were based on a balanced modification of the AIN93-G diet as described previously (Bajka et al., 2006). Mice were fed for 3-5 weeks starting at 3, 5 or 10 weeks of age. SCFAs in faeces, blood and caecal content were analysed as previously described in (Bajka et al., 2006). Diabetes was monitored as previously described (Mariño et al., 2009).
To determine whether oral administration of acetate (to increase its concentration in the circulation) could modulate disease progression, acetate was added to the drinking water of NOD female mice.

The next assay concerns pancreatic islets. Nature of the assay: Insulitis scoring of pancreatic islets. The class given is in vivo, mouse. To be noted: 10 weeks of age, 5 weeks after starting acetate treatment. From the text: Pancreatic tissue was processed and stained using standard procedures. For insulitis scoring, pancreata sections were taken at 3 […] (100 μm apart). At least 100 islets were scored from 5 to 15 mice. Islets were graded according to the following system: Grade 0—no indication of insulitis, Grade 1—<25% infiltration, Grade 2—25-50% infiltration, Grade 3—50-75% infiltration, and Grade 4—>75% infiltration.

Consider `CC(=O)[O-].[Na+]` [acetate, sodium acetate], for which, in the assay with female NOD mice (vs controls), the development of diabetes result is given as “significantly delayed”. For the same molecule, in the assay with female NOD mice (at age 30 weeks), the T1D incidence worked out at 40%. The “insulitis (islet infiltration)” value in the assay with pancreatic islets was “more pancreatic islets without immune cell infiltration, and fewer islets with high-grade infiltration”.
